According to PubChem BioAssay AID248 (DTP/NCI, 2004):
Several values for one entry are separate records, joined by “and”; a condition that tells them apart may be missing. Identical values can stand only once. Toxic doses and inconclusive results are not listed. No stated cut-off is given here; in the data, active means T/C of 150% or more; inactive means T/C below 125%.

Test system: L1210 leukemia ip in BDF1 mice, survival T/C
Assay: NCI In Vivo Anticancer Drug Screen. Data for tumor model L1210 Leukemia (intraperitoneal) in B6D2F1 (BDF1) mice
Details: endpoint: mean survival time, higher = longer survival
Outline: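 Antitumor effect is assessed in tumor-bearing animals. Survival in the compound arm is compared with a vehicle-dosed control arm and expressed as their quotient.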

[1] = dose: 100.0 mg/kg/injection, schedule: Q04DX003 (ip), vehicle: saline with Tween-80
[2] = dose: 100.0 mg/kg/injection, schedule: Q04DX003 (ip), vehicle: Klucel (hydroxypropylcellulose) (HPC)
[3] = dose: 200.0 mg/kg/injection, schedule: Q04DX003 (ip), vehicle: Klucel (hydroxypropylcellulose) (HPC)
[4] = dose: 400.0 mg/kg/injection, schedule: Q04DX003 (ip), vehicle: Klucel (hydroxypropylcellulose) (HPC)
[5] = dose: 100.0 mg/kg/injection, schedule: Q01DX001 (ip), vehicle: saline
[6] = dose: 200.0 mg/kg/injection, schedule: Q01DX001 (ip), vehicle: saline
[7] = dose: 400.0 mg/kg/injection, schedule: Q01DX001 (ip), vehicle: saline
[8] = dose: 100.0 mg/kg/injection, schedule: Q04DX003 (ip), vehicle: saline
[9] = dose: 200.0 mg/kg/injection, schedule: Q04DX003 (ip), vehicle: saline
[10] = dose: 400.0 mg/kg/injection, schedule: Q04DX003 (ip), vehicle: saline
[11] = dose: 100.0 mg/kg/injection, schedule: Q01DX001 (ip), vehicle: carboxymethylcellulose (CMC)
[12] = dose: 150.0 mg/kg/injection, schedule: Q01DX001 (ip), vehicle: carboxymethylcellulose (CMC)
[13] = dose: 25.0 mg/kg/injection, schedule: Q01DX009 (ip), vehicle: saline
[14] = dose: 100.0 mg/kg/injection, schedule: Q01DX009 (ip), vehicle: saline
[15] = dose: 200.0 mg/kg/injection, schedule: Q01DX009 (ip), vehicle: saline
[16] = dose: 50.0 mg/kg/injection, schedule: Q01DX009 (ip), vehicle: saline
[17] = dose: 25.0 mg/kg/injection, schedule: Q04DX003 (ip), vehicle: Klucel (hydroxypropylcellulose) (HPC)
[18] = dose: 50.0 mg/kg/injection, schedule: Q04DX003 (ip), vehicle: Klucel (hydroxypropylcellulose) (HPC)

Measured: T/C

CCC[CH2][Sn]1([CH2]CCC)[O]OC(C)(CC)[O]1 (stereo not drawn)
inactive: dose: 6.25 mg/kg/injection, schedule: Q01DX009 (ip), vehicle: saline sonified 108 % of control

CCCCCCCCCCCCOc1ccc2ccccc2c1
inactive: [1] 97 % of control | dose: 200.0 mg/kg/injection, schedule: Q04DX003 (ip), vehicle: saline with Tween-80 95 % of control | dose: 400.0 mg/kg/injection, schedule: Q04DX003 (ip), vehicle: saline with Tween-80 108 % of control

CCOC(=O)c1cnc[nH]c1=O
inactive: [2] 100 % of control | [3] 100 % of control | [4] 87 % of control

C=CCOc1c(Br)cc(Br)cc1Br
inactive: dose: 12.5 mg/kg/injection, schedule: Q04DX002 (ip), vehicle: Klucel (hydroxypropylcellulose) (HPC) 96 % of control | dose: 25.0 mg/kg/injection, schedule: Q04DX002 (ip), vehicle: Klucel (hydroxypropylcellulose) (HPC) 100 % of control | dose: 50.0 mg/kg/injection, schedule: Q04DX002 (ip), vehicle: Klucel (hydroxypropylcellulose) (HPC) 86 % of control | dose: 100.0 mg/kg/injection, schedule: Q04DX002 (ip), vehicle: Klucel (hydroxypropylcellulose) (HPC) 95 % of control | dose: 200.0 mg/kg/injection, schedule: Q04DX002 (ip), vehicle: Klucel (hydroxypropylcellulose) (HPC) 89 % of control | dose: 400.0 mg/kg/injection, schedule: Q04DX002 (ip), vehicle: Klucel (hydroxypropylcellulose) (HPC) 95 % of control

CN(C)Cc1cc(C(C)(C)C)c(O)c(C(C)(C)C)c1
inactive: dose: 25.0 mg/kg/injection, schedule: Q01DX009 (ip), vehicle: saline with Tween-80 112 % of control | dose: 50.0 mg/kg/injection, schedule: Q01DX009 (ip), vehicle: saline with Tween-80 98 % of control | dose: 100.0 mg/kg/injection, schedule: Q01DX009 (ip), vehicle: saline with Tween-80 94 % of control | [1] 95 % of control

O=C1OC(CO)C(O)C1O (stereo not drawn)
inactive: [5] 101 % of control | [6] 95 % of control | [7] 91 % of control

COCP(=O)(OC)OC
inactive: [8] 116 % of control | [9] 94 % of control | [10] 100 % of control

CCOC(=O)c1ccc([N+](=O)[O-])s1
inactive: [8] 100 % of control | [9] 97 % of control | [10] 111 % of control

CCOC(=O)C(Cc1csc2ccccc12)(NC(C)=O)C(=O)OCC
inactive: dose: 44.4 mg/kg/injection, schedule: Q01DX001 (ip), vehicle: carboxymethylcellulose (CMC) 93 % of control and 94 % of control | dose: 66.7 mg/kg/injection, schedule: Q01DX001 (ip), vehicle: carboxymethylcellulose (CMC) 93 % of control and 94 % of control | [11] 94 % of control and 98 % of control | [12] 101 % of control and 91 % of control

CCOC(=O)N1C(C)C1C(C)C (stereo not drawn)
inactive: dose: 62.0 mg/kg/injection, schedule: Q04DX003 (ip), vehicle: carboxymethylcellulose (CMC) 97 % of control | dose: 125.0 mg/kg/injection, schedule: Q04DX003 (ip), vehicle: carboxymethylcellulose (CMC) 97 % of control | dose: 250.0 mg/kg/injection, schedule: Q04DX003 (ip), vehicle: carboxymethylcellulose (CMC) 94 % of control

CC1=CC(=O)OC1=O (tested in a mixture with another compound)
inactive: dose: 37.5 mg/kg/injection, schedule: Q01DX009 (ip), vehicle: carboxymethylcellulose (CMC) 117 % of control | dose: 75.0 mg/kg/injection, schedule: Q01DX001 (ip), vehicle: carboxymethylcellulose (CMC) 109 % of control | [12] 118 % of control

COc1cccc(/C=N\NC(=O)C(C)SC(C)C(=O)N/N=C/c2cccc(OC)c2)c1 (stereo not drawn)
inactive: dose: 100.0 mg/kg/injection, schedule: Q01DX009 (ip), vehicle: other 91 % of control | dose: 100.0 mg/kg/injection, schedule: Q04DX003 (ip), vehicle: other 89 % of control | dose: 200.0 mg/kg/injection, schedule: Q01DX009 (ip), vehicle: other 94 % of control | dose: 200.0 mg/kg/injection, schedule: Q04DX003 (ip), vehicle: other 89 % of control | dose: 400.0 mg/kg/injection, schedule: Q01DX009 (ip), vehicle: other 94 % of control | dose: 400.0 mg/kg/injection, schedule: Q04DX003 (ip), vehicle: other 96 % of control

Nc1nc(-c2ccccc2)[nH]c(=O)c1N=O
inactive: dose: 100.0 mg/kg/injection, schedule: Q04DX002 (ip), vehicle: saline with Tween-80 98 % of control | dose: 200.0 mg/kg/injection, schedule: Q04DX002 (ip), vehicle: saline with Tween-80 87 % of control | dose: 400.0 mg/kg/injection, schedule: Q04DX002 (ip), vehicle: saline with Tween-80 102 % of control

CC1=NCCc2ccccc21
inactive: dose: 6.25 mg/kg/injection, schedule: Q01DX009 (ip), vehicle: saline 92 % of control | dose: 12.5 mg/kg/injection, schedule: Q01DX009 (ip), vehicle: saline 95 % of control | [13] 90 % of control

CC(=O)CCc1ccccc1
inactive: [11] 101 % of control | dose: 200.0 mg/kg/injection, schedule: Q01DX001 (ip), vehicle: carboxymethylcellulose (CMC) 103 % of control | dose: 400.0 mg/kg/injection, schedule: Q01DX001 (ip), vehicle: carboxymethylcellulose (CMC) 101 % of control

CCOC(=O)CCN1CCOCC1
inactive: [14] 100 % of control | [8] 111 % of control | [15] 101 % of control | [9] 101 % of control | dose: 400.0 mg/kg/injection, schedule: Q01DX009 (ip), vehicle: saline 111 % of control | [10] 101 % of control

CC(=O)N=C1C=C(NC(C)=O)C(=O)c2ncccc21
inactive: dose: 50.0 mg/kg/injection, schedule: Q04DX003 (ip), vehicle: saline with Tween-80 96 % of control | [1] 96 % of control

O=S(=O)(CC12CC1(O)C1CCC2C1)c1ccccc1 (stereo not drawn)
inactive: [13] 104 % of control | [16] 104 % of control | [5] 108 % of control | [14] 93 % of control | [8] 103 % of control | [6] 103 % of control | [9] 100 % of control | [7] 107 % of control

CCOC(=O)C(C#N)C(C)CC (stereo not drawn)
inactive: dose: 100.0 mg/kg/injection, schedule: Q01DX009 (ip), vehicle: Klucel (hydroxypropylcellulose) (HPC) 102 % of control | [2] 98 % of control | dose: 200.0 mg/kg/injection, schedule: Q01DX009 (ip), vehicle: Klucel (hydroxypropylcellulose) (HPC) 98 % of control | [3] 102 % of control | dose: 400.0 mg/kg/injection, schedule: Q01DX009 (ip), vehicle: Klucel (hydroxypropylcellulose) (HPC) 94 % of control | [4] 90 % of control

O=c1ccsc(=S)[nH]1
inactive: dose: 100.0 mg/kg/injection, schedule: Q01DX001 (ip), vehicle: saline with Tween-80 101 % of control | dose: 200.0 mg/kg/injection, schedule: Q01DX001 (ip), vehicle: saline with Tween-80 104 % of control | dose: 400.0 mg/kg/injection, schedule: Q01DX001 (ip), vehicle: saline with Tween-80 97 % of control

C=C[CH2][Sn]([c]1ccccc1)([c]1ccccc1)[c]1ccccc1
inactive: [16] 92 % of control and 101 % of control | [14] 96 % of control and 101 % of control | [1] 91 % of control | [15] 96 % of control and 97 % of control

Cc1cc(OCCCC(=O)O)ccc1Cl
inactive: dose: 50.0 mg/kg/injection, schedule: Q01DX001 (ip), vehicle: saline 104 % of control | [5] 104 % of control | [6] 102 % of control | [7] 96 % of control

O=S(=O)(O)C(O)c1ccc(Cl)cc1Cl (stereo not drawn)
inactive: [8] 102 % of control | [9] 102 % of control | [10] 107 % of control

O=C(C[n+]1ccccc1)c1ccc(S(=O)(=O)c2ccccc2)cc1
inactive: dose: 12.5 mg/kg/injection, schedule: Q04DX003 (ip), vehicle: Klucel (hydroxypropylcellulose) (HPC) 95 % of control | [17] 93 % of control | [18] 89 % of control | [2] 94 % of control

CNc1n[n+](-c2ccccc2)no1
inactive: [13] 93 % of control | dose: 25.0 mg/kg/injection, schedule: Q04DX003 (ip), vehicle: saline 111 % of control | [16] 109 % of control | dose: 50.0 mg/kg/injection, schedule: Q04DX003 (ip), vehicle: saline 104 % of control | [8] 97 % of control and 101 % of control

O=P(OCC(Br)CBr)(OCC(Br)CBr)OCC(Br)CBr (stereo not drawn)
inactive: [18] 107 % of control | [2] 98 % of control | [3] 106 % of control | [4] 106 % of control

CCCCNc1c(C2=NCCN2)cnc2c1cnn2CC
inactive: [17] 92 % of control | [18] 99 % of control | [2] 90 % of control and 92 % of control
